How the values were obtained:
[1] = molecular target: Proteasome Macropain subunit (Homo sapiens) (UniProt P49721); test: Inhibition of 26S proteasome beta 2 in human HEK293 cell lysate assessed as residual activity at 0.006 uM after 1 hr; type: cell-free
[2] = molecular target: T1, Proteasome component C5 (Homo sapiens) (UniProt P20618); test: Inhibition of 26S proteasome beta 1 in human HEK293 cell lysate assessed as residual activity at 1.5 uM after 1 hr; type: cell-free
T1 sequence (whole entry): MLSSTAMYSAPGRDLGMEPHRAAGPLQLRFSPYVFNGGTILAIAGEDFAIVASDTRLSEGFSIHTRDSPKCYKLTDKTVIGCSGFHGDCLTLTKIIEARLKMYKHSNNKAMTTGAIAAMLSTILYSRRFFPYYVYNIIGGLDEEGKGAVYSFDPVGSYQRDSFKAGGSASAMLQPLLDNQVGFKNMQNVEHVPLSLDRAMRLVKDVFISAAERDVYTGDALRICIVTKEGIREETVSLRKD

[3] = molecular target: T1, Proteasome component C5 (Homo sapiens); test: Inhibition of 26S proteasome beta 1 in human HEK293 cell lysate assessed as residual activity at 0.167 uM after 1 hr; type: cell-free
[4] = molecular target: Proteasome Macropain subunit (Homo sapiens) (UniProt P49721); test: Inhibition of 26S proteasome beta 2 in human HEK293 cell lysate assessed as residual activity at 0.019 uM after 1 hr; type: cell-free
[5] = molecular target: T1, Proteasome component C5 (Homo sapiens); test: Inhibition of 26S proteasome beta 1 in human HEK293 cell lysate assessed as residual activity at 13.5 uM after 1 hr; type: cell-free
[6] = molecular target: T1, Proteasome component C5 (Homo sapiens); test: Inhibition of 26S proteasome beta 1 in human HEK293 cell lysate assessed as residual activity at 0.006 uM after 1 hr; type: cell-free
[7] = molecular target: T2, Proteasome Macropain subunit MB1 (Homo sapiens) (UniProt P28074); test: Displacement of fluorescent labeled MV151 from 26S proteasome beta 5 in human HEK293 cell lysate assessed as residual activity at 1 uM after 1 hr by SDS-PAGE; type: cell-free
T2 sequence (whole entry): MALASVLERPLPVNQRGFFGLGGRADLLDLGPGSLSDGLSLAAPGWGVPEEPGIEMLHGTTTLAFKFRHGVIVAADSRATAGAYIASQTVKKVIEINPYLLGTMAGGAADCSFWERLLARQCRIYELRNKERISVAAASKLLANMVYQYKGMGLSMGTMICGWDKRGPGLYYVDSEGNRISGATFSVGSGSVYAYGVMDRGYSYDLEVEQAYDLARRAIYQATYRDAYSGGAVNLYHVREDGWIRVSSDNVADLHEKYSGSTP

[8] = molecular target: T1, Proteasome component C5 (Homo sapiens); test: Inhibition of 26S proteasome beta 1 in human HEK293 cell lysate assessed as residual activity at 0.001 uM after 1 hr; type: cell-free
[9] = molecular target: T1, Proteasome component C5 (Homo sapiens); test: Inhibition of 26S proteasome beta 1 in human HEK293 cell lysate assessed as residual activity at 0.019 uM after 1 hr; type: cell-free
[10] = molecular target: Proteasome Macropain subunit (Homo sapiens) (UniProt P49721); test: (§1) Inhibition of 26S proteasome beta 2 in human HEK293 cell lysate assessed as residual activity at […] after 1 hr; type: cell-free
[11] = molecular target: T1, Proteasome component C5 (Homo sapiens); test: (§2) Inhibition of 26S proteasome beta 1 in human HEK293 cell lysate assessed as residual activity at […] after 1 hr; type: cell-free
[12] = molecular target: Proteasome Macropain subunit (Homo sapiens) (UniProt P49721); test: Inhibition of 26S proteasome beta 2 in human HEK293 cell lysate assessed as residual activity at 1.5 uM after 1 hr; type: cell-free
[13] = molecular target: Proteasome Macropain subunit (Homo sapiens) (UniProt P49721); test: Inhibition of 26S proteasome beta 2 in human HEK293 cell lysate assessed as residual activity at 13.5 uM after 1 hr; type: cell-free
[14] = molecular target: Proteasome Macropain subunit (Homo sapiens) (UniProt P49721); test: Inhibition of 26S proteasome beta 2 in human HEK293 cell lysate assessed as residual activity at 0.5 uM after 1 hr; type: cell-free
[15] = molecular target: Proteasome Macropain subunit (Homo sapiens) (UniProt P49721); test: Inhibition of 26S proteasome beta 2 in human HEK293 cell lysate assessed as residual activity at 0.002 uM after 1 hr; type: cell-free
[16] = molecular target: T1, Proteasome component C5 (Homo sapiens); test: as §2; type: cell-free; remark: listed apart in the source
[17] = molecular target: Proteasome Macropain subunit (Homo sapiens) (UniProt P49721); test: as §1; type: cell-free; remark: listed apart in the source
[18] = molecular target: Proteasome Macropain subunit (Homo sapiens) (UniProt P49721); test: Displacement of fluorescent labeled MV151 from 26S proteasome beta 2 in human HEK293 cell lysate assessed as residual activity at 100 uM after 1 hr by SDS-PAGE; type: cell-free
[19] = molecular target: T1, Proteasome component C5 (Homo sapiens); test: Inhibition of 26S proteasome beta 1 in human HEK293 cell lysate assessed as residual activity at 0.5 uM after 1 hr; type: cell-free
[20] = molecular target: T1, Proteasome component C5 (Homo sapiens); test: Displacement of fluorescent labeled MV151 from 26S proteasome beta 1 in human HEK293 cell lysate assessed as residual activity at 100 uM after 1 hr by SDS-PAGE; type: cell-free
[21] = molecular target: Proteasome Macropain subunit (Homo sapiens) (UniProt P49721); test: Inhibition of 26S proteasome beta 2 in human HEK293 cell lysate assessed as residual activity at 0.167 uM after 1 hr; type: cell-free
[22] = molecular target: Proteasome Macropain subunit (Homo sapiens) (UniProt P49721); test: Inhibition of 26S proteasome beta 2 in human HEK293 cell lysate assessed as residual activity at 0.001 uM after 1 hr; type: cell-free
[23] = molecular target: T1, Proteasome component C5 (Homo sapiens); test: Inhibition of 26S proteasome beta 1 in human HEK293 cell lysate assessed as residual activity at 0.002 uM after 1 hr; type: cell-free
[24] = molecular target: T1, Proteasome component C5 (Homo sapiens); test: Displacement of fluorescent labeled MV151 from 26S proteasome beta 1 in human HEK293 cell lysate assessed as residual activity at 1 uM after 1 hr by SDS-PAGE; type: cell-free
[25] = molecular target: Proteasome subunit beta type-5 (Homo sapiens) (UniProt P28074); test: Inhibition of 26S proteasome beta 5 in human HEK293 cell lysate assessed as residual activity at 13.5 uM after 1 hr
[26] = molecular target: Proteasome subunit beta type-5 (Homo sapiens) (UniProt P28074); test: Inhibition of 26S proteasome beta 5 in human HEK293 cell lysate assessed as residual activity at […] after 1 hr
[27] = molecular target: Proteasome subunit beta type-5 (Homo sapiens) (UniProt P28074); test: Inhibition of 26S proteasome beta 5 in human HEK293 cell lysate assessed as residual activity at 0.006 uM after 1 hr
[28] = molecular target: Proteasome Macropain subunit (Homo sapiens) (UniProt P49721); test: Displacement of fluorescent labeled MV151 from 26S proteasome beta 2 in human HEK293 cell lysate assessed as residual activity at 1 uM after 1 hr by SDS-PAGE; type: cell-free
[29] = molecular target: Proteasome subunit beta type-5 (Homo sapiens) (UniProt P28074); test: Inhibition of 26S proteasome beta 5 in human HEK293 cell lysate assessed as residual activity at 0.5 uM after 1 hr
[30] = molecular target: Proteasome subunit beta type-5 (Homo sapiens) (UniProt P28074); test: Inhibition of 26S proteasome beta 5 in human HEK293 cell lysate assessed as residual activity at 1.5 uM after 1 hr
[31] = molecular target: Proteasome subunit beta type-5 (Homo sapiens) (UniProt P28074); test: Inhibition of 26S proteasome beta 5 in human HEK293 cell lysate assessed as residual activity at 0.167 uM after 1 hr
[32] = molecular target: Proteasome subunit beta type-5 (Homo sapiens) (UniProt P28074); test: Inhibition of 26S proteasome beta 5 in human HEK293 cell lysate assessed as residual activity at 0.001 uM after 1 hr
[33] = molecular target: Proteasome subunit beta type-5 (Homo sapiens) (UniProt P28074); test: Inhibition of 26S proteasome beta 5 in human HEK293 cell lysate assessed as residual activity at […] after 1 hr; remark: listed apart in the source
[34] = molecular target: Proteasome subunit beta type-5 (Homo sapiens) (UniProt P28074); test: Inhibition of 26S proteasome beta 5 in human HEK293 cell lysate assessed as residual activity at 0.019 uM after 1 hr
[35] = molecular target: T2, Proteasome Macropain subunit MB1 (Homo sapiens); test: Displacement of fluorescent labeled MV151 from 26S proteasome beta 5 in human HEK293 cell lysate assessed as residual activity at 100 uM after 1 hr by SDS-PAGE; type: cell-free
[36] = molecular target: Proteasome subunit beta type-5 (Homo sapiens) (UniProt P28074); test: Inhibition of 26S proteasome beta 5 in human HEK293 cell lysate assessed as residual activity at 0.002 uM after 1 hr

Proteasome Macropain subunit (Homo sapiens), sequence (P49721 whole entry): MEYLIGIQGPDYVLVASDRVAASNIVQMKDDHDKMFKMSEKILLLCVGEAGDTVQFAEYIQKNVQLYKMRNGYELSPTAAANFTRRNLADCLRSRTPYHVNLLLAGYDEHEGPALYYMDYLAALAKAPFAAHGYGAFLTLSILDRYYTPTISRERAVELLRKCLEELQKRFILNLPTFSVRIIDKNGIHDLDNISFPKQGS

Activity [1]	Activity [2]	Activity [3]	Activity [4]	Activity [5]	Activity [7]	Activity [10]	Activity [11]	Activity [12]	Activity [13]	Activity [14]	Activity [16]	Activity [17]	Activity [18]	Activity [19]	Activity [20]	Activity [21]	Activity [24]	Activity [28]	Activity [35]	Compound	also measured
105%	69.9%	84.9%	82%	58.3%	4.6%	26.1%	104%	37%	10.6%	65.8%	54%	115%	133%	58.4%	7.2%	89%	139%			CC(C)C[C@H](NC(=O)[C@H](Cc1ccccc1)NC(=O)[C@H](Cc1ccccc1)NC(=O)[C@H](Cc1ccccc1)N=[N+]=[N-])C(=O)[C@@]1(C)CO1	Activity [6]: 96.5%; Activity [8]: 105%; Activity [9]: 76.8%; Activity [15]: 109%; Activity [22]: 106%; Activity [23]: 100%
105%	82.8%	93.5%	111%	50.3%	45%	77.1%	103%	97.3%	57.9%	99.1%	67.7%	111%	92%	89.9%	61%	112%	156%	4.3%	2.6%	CC(C)C[C@H](NC(=O)[C@H](Cc1cc(C(F)(F)F)cc(C(F)(F)F)c1)NC(=O)[C@H](Cc1ccccc1)NC(=O)[C@H](Cc1ccccc1)N=[N+]=[N-])C(=O)[C@@]1(C)CO1	Activity [25]: 3%; Activity [26]: 66.2%; Activity [27]: 92.2%; Activity [29]: 19.7%; Activity [30]: 9.5%; Activity [6]: 97.8%; Activity [8]: 106%; Activity [9]: 98.1%; Activity [31]: 34.9%; Activity [32]: 109%; Activity [33]: 5.2%; Activity [15]: 99.6%; Activity [34]: 100%; Activity [36]: 97%; Activity [22]: 106%; Activity [23]: 102%
					79%								149%		100%		192%	48%	31%	CC(C)C[C@H](NC(=O)[C@H](Cc1cc(C(F)(F)F)cc(C(F)(F)F)c1)NC(=O)[C@H](Cc1cc(C(F)(F)F)cc(C(F)(F)F)c1)NC(=O)[C@H](Cc1ccccc1)N=[N+]=[N-])C(=O)[C@@]1(C)CO1	

Compound	Activity [1]	Activity [2]	Activity [3]	Activity [4]	Activity [5]	Activity [7]	Activity [10]	Activity [11]	Activity [12]	Activity [13]	Activity [14]	Activity [16]	Activity [17]	Activity [18]	Activity [19]	Activity [20]	Activity [21]	Activity [24]	Activity [28]	Activity [35]	also measured
CC(C)C[C@H](NC(=O)[C@H](Cc1ccccc1)NC(=O)[C@H](Cc1c(F)c(F)c(F)c(F)c1F)NC(=O)[C@H](Cc1ccccc1)N=[N+]=[N-])C(=O)[C@@]1(C)CO1		115%	89.4%		73.1%	89.1%	119%	83.2%	127%	98.4%	118%	102%	98.7%	56.9%	103%	87.6%	89.9%	82.1%	2.9%	0.83%	Activity [25]: 5.8%; Activity [26]: 56.2%; Activity [29]: 29.7%; Activity [30]: 14.7%; Activity [31]: 48.9%; Activity [33]: 8%

Source: ChEMBL document CHEMBL1157550, “Incorporation of fluorinated phenylalanine generates highly specific inhibitor of proteasome's chymotrypsin-like sites” (J Med Chem, 2010)
